Test results published in patent US4301313A, “Halogenated ethynyl biphenyls” (Eli-Lilly and Company, priority 1974, dated 1981).
Where “and” joins values, the source holds several entries; their conditions need not be identical. Equal values may be shown once.

Legend:
[1] = ultraviolet-induced erythema test, topical application in alcohol solution; assay type: in vivo, guinea pig; conditions: for Erythemic score, 1 Hr. after U.V. exposure / Erythemic score, 1.5 Hr. after U.V. exposure / Erythemic score, 2 Hr. after U.V. exposure / Erythemic score, 2.5 Hr. after U.V. exposure: unweighted; for Total erythemic score: control 78
Method: (§1) The compounds of the present invention were evaluated for anti-inflammatoryactivity by the ultraviolet-induced erythema blocking test. The test procedures were a modification of the Winder method (Winder, C. V.; Wax, J.; Burr, V.; Been, M.; and Posiere, C. E.: A Study of Pharmacological Influences on Ultraviolet Erythema in Guinea Pigs. Arch. Int. Pharmacodyn. 116: 261, 1958). Male albino guinea pigs weighing 240-300 gm. were used. The hair on the back was clipped and chemically depilated 15-18 hours before each experiment. The animals were fasted overnight, and on the day of the experiment, were randomized and placed in clear plastic partitioned holders 10×20 cm. wide and 15 cm. high.
(§2) The source of ultraviolet light was a Hanovia lamp (Kromayer-Model 10). A notebook reinforcement ring was placed upon the lens of the lamp to provide an area of contrast for grading purposes. The lens was then placed in contact with the skin of the guinea pig's back. Exposure time to UV was for a period of 4 seconds. Beginning one hour after exposure and thereafter at half-hour intervals for another 11/2 hours, the degree of resulting erythema was graded by an arbitrary scoring system based upon the degree of contrast and redness formed. Anti-inflammatory agents delay the development of the erythema and have their greatest effect at the initial grading periods. The scores were, therefore, weighted by factors of 4, 3, 2, and 1 at the 1.0, 1.5, 2.0, and 2.5 hour scoring times, respectively. The erythema was graded as follows:
(§3) Total scores from each treatment group of four guinea pigs were compared to the scores of the control group. The percent inhibition was calculated as follows: [formula] In the case of compounds showing inhibition, retesting was carried out at a plurality of doses to enable calculation of an ED50 for each such compound. "ED50 " designates that dose which provides 50% inhibition. Calculation of the ED50 was either by a standard linear regression method or by estimation from a dose-response curve of three or more points. The compounds so tested and their ED50 s were as follows:
(4-(2-Fluorophenyl)phenyl)acetylene was also evaluated for anti-inflammatory effect when applied topically. The test procedures were the same as those reported in Examples 29-52 except for three differences: the compound was applied topically in an alcohol solution immediately after exposure to the ultraviolet; scores were not weighted; and results were recorded only as percent inhibition.

[2] = ultraviolet-induced erythema test, compound administered 8 or 22 hours prior to exposure; assay type: in vivo, guinea pig; conditions: 0.5 mg./kg.; for Score 0.5 hours after exposure to ultraviolet: 0.5 h reading; for Score 1.0 hours after exposure to ultraviolet: 1.0 h reading; for Score 1.5 hours after exposure to ultraviolet: 1.5 h reading; for Score 2.0 hours after exposure to ultraviolet: 2.0 h reading; for Score 2.5 hours after exposure to ultraviolet: 2.5 h reading; for Score 3.0 hours after exposure to ultraviolet: 3.0 h reading
Method: as §1
The compounds to be tested were suspended in 1% methyl cellulose in water, utilizing a tissue homogenizer. The suspensions were administered orally in a volume of 2.0 ml./kg. of body weight. Control animals received an equal amount of the vehicle.
as §2, §3
(4-(2-Fluorophenyl)phenyl)acetylene was evaluated again by the procedures of Examples 29-52, except that the compound was administered 8 or 22 hours prior to exposure to ultraviolet light. The dose was uniformly 0.5 mg./kg. Readings were made at half-hour intervals beginning at one-half hour after exposure and ending at three and one-half hours after exposure. Scores were not weighted, and results were recorded only as percent inhibition.

[3] = control of inflammation in dogs (ultraviolet-induced erythema, abdominal skin); assay type: in vivo, dog
Method: (4-(2-Fluorophenyl)phenyl)acetylene was also evaluated for the control of inflammation in dogs. The testing procedures were the same as reported in the preceding examples except for these differences: a 10-second exposure time was used; non-pigmented abdominal skin was used; and the observed erythema was graded every half hour over a three-hour period with no weighting of scores. A placebo control was run with the same test dogs on the day prior to treatment.

[4] = adjuvant-induced arthritis test (paw volume); assay type: in vivo, rat (male albino); conditions: rat, oral
[5] = carrageenin-induced hind paw inflammation; assay type: in vivo; conditions: Rattus norvegicus
Method: Representative compounds were also evaluated for anti-inflammatory activity in the test method described by C. A. Winter at 111 Proc. Soc. Exp. Biol. Med., 544 (1962). In this method, inflammation is created by injecting carrageenin into the hind paw of rats. Test compounds are administered prior to injection to determine percent inhibition of the subsequent inflammation, in comparison with control animals.

[6] = antipyretic effect in yeast-induced fever; assay type: in vivo, rat
Method: (4-(2-Fluorophenyl)phenyl)acetylene was evaluated for antipyretic effect in rats. Fever was induced by subcutaneous injection of yeast, a technique reported at 54 J. Pharm. Exp. Ther. 346 (1935). A total of 24 rats was employed, divided into 6 treatment groups. One group was a normal control, without even the yeast injection. A second group served as a yeast control, receiving yeast injection but none of the test compound. All of the remaining groups received the test compound, in the following pattern: no yeast+100 mg./kg. of compound yeast+100 mg./kg. of compound yeast+50 mg./kg. of compound yeast+10 mg./kg. of compound The procedure was that yeast was administered to all rats at the same time, and temperatures were ascertained two hours later, at which time the test compound was administered to those groups assigned to receive it. Temperatures of all animals were also recorded thereafter at 1.0, 1.5, 2.0, 2.5, and 3.0 hours following administration of the test compound.

**Q.** With C#Cc1ccc(-c2ccccc2F)cc1 [(4-(2-fluorophenyl)phenyl)acetylene] as the compound, how does the “% Inhibition” value ([1]; 1 μg applied) read?
**A.** 28%

**Q.** What about the “Erythemic score, 1 Hr. after U.V. exposure” value ([1]; 1 μg applied) of the same compound?
**A.** 6

**Q.** What about the “Erythemic score, 1.5 Hr. after U.V. exposure” value ([1]; 1 μg applied) of the same compound?
**A.** 13

**Q.** And the “Erythemic score, 2 Hr. after U.V. exposure” value ([1]; 1 μg applied)?
**A.** 18

**Q.** What about the “Erythemic score, 2.5 Hr. after U.V. exposure” value ([1]; 1 μg applied) of the same compound?
**A.** 19

**Q.** And the Total erythemic score ([1]; 1 μg applied)?
**A.** 56

**Q.** What about the “% Inhibition” value ([1]; 10 μg applied) of the same compound?
**A.** 41%

**Q.** What about the “Erythemic score, 1 Hr. after U.V. exposure” value ([1]; 10 μg applied) of the same compound?
**A.** 5

**Q.** And the “Erythemic score, 1.5 Hr. after U.V. exposure” value ([1]; 10 μg applied)?
**A.** 10

**Q.** And the “Erythemic score, 2 Hr. after U.V. exposure” value ([1]; 10 μg applied)?
**A.** 14

**Q.** And the “Erythemic score, 2.5 Hr. after U.V. exposure” value ([1]; 10 μg applied)?
**A.** 17

**Q.** And the Total erythemic score ([1]; 10 μg applied)?
**A.** 46

**Q.** And the “% Inhibition” value ([1]; 100 μg applied)?
**A.** 83%

**Q.** And the “Erythemic score, 1 Hr. after U.V. exposure” value ([1]; 100 μg applied)?
**A.** 0

**Q.** And the “Erythemic score, 1.5 Hr. after U.V. exposure” value ([1]; 100 μg applied)?
**A.** 1

**Q.** What about the “Erythemic score, 2 Hr. after U.V. exposure” value ([1]; 100 μg applied) of the same compound?
**A.** 4

**Q.** And the “Erythemic score, 2.5 Hr. after U.V. exposure” value ([1]; 100 μg applied)?
**A.** 8

**Q.** And the Total erythemic score ([1]; 100 μg applied)?
**A.** 13

**Q.** And the “% Erythema Inhibition” value ([2]; 8 hours prior to exposure)?
**A.** 71%

**Q.** What about the “Score 0.5 hours after exposure to ultraviolet” value ([2]; 8 hours prior to exposure) of the same compound?
**A.** 0

**Q.** And the “Score 1.0 hours after exposure to ultraviolet” value ([2]; 8 hours prior to exposure)?
**A.** 0

**Q.** What about the “Score 1.5 hours after exposure to ultraviolet” value ([2]; 8 hours prior to exposure) of the same compound?
**A.** 3

**Q.** And the “Score 2.0 hours after exposure to ultraviolet” value ([2]; 8 hours prior to exposure)?
**A.** 6

**Q.** What about the “Score 2.5 hours after exposure to ultraviolet” value ([2]; 8 hours prior to exposure) of the same compound?
**A.** 6

**Q.** What about the “Score 3.0 hours after exposure to ultraviolet” value ([2]; 8 hours prior to exposure) of the same compound?
**A.** 15

**Q.** And the “Total Score” value ([2]; 8 hours prior to exposure, control 104)?
**A.** 30

**Q.** What about the “% Erythema Inhibition” value ([2]; 22 hours prior to exposure) of the same compound?
**A.** 41%

**Q.** And the “Score 0.5 hours after exposure to ultraviolet” value ([2]; 22 hours prior to exposure)?
**A.** 3

**Q.** What about the “Score 1.0 hours after exposure to ultraviolet” value ([2]; 22 hours prior to exposure) of the same compound?
**A.** 4

**Q.** What about the “Score 1.5 hours after exposure to ultraviolet” value ([2]; 22 hours prior to exposure) of the same compound?
**A.** 8

**Q.** What about the “Score 2.0 hours after exposure to ultraviolet” value ([2]; 22 hours prior to exposure) of the same compound?
**A.** 14

**Q.** What about the “Score 2.5 hours after exposure to ultraviolet” value ([2]; 22 hours prior to exposure) of the same compound?
**A.** 17

**Q.** And the “Score 3.0 hours after exposure to ultraviolet” value ([2]; 22 hours prior to exposure)?
**A.** 17

**Q.** What about the “Total Score” value ([2]; 22 hours prior to exposure, control 107) of the same compound?
**A.** 63

**Q.** And the “% Erythema Inhibition” value ([3]; dog No. 04, 5 mg/kg)?
**A.** 100%

**Q.** What about the “Total erythemic score” value ([3]; dog No. 04, 5 mg/kg, control 15) of the same compound?
**A.** 0

**Q.** And the “% Erythema Inhibition” value ([3]; dog No. 05, 1 mg/kg)?
**A.** 71%

**Q.** What about the “Total erythemic score” value ([3]; dog No. 05, 1 mg/kg, control 14) of the same compound?
**A.** 4

**Q.** And the “% Erythema Inhibition” value ([3]; dog No. 05, 10 mg/kg)?
**A.** 100%

**Q.** What about the “Total erythemic score” value ([3]; dog No. 05, 10 mg/kg, control 14) of the same compound?
**A.** 0

**Q.** What about the “Percent Inhibition of Volume Increase, Day 7” value ([4]; dose 1 (unit not given)) of the same compound?
**A.** 27% and 22%

**Q.** And the “Percent Inhibition of Volume Increase, Day 7” value ([4]; dose 3 (unit not given))?
**A.** 35% and 29%

**Q.** And the “Percent Inhibition of Volume Increase, Day 7” value ([4]; dose 10 (unit not given))?
**A.** 30% and 23%

**Q.** And the “Percent Inhibition of Volume Increase, Day 14” value ([4]; dose 10 (unit not given), Day 14)?
**A.** 5% and 0%

**Q.** What about the inhibition in vivo at 0.3 mg/kg ([5]; 0.3 mg./kg.) of the same compound?
**A.** 21%

**Q.** What about the inhibition in vivo at 0.5 mg/kg ([5]; 0.5 mg./kg.) of the same compound?
**A.** 6%

**Q.** What about the inhibition in vivo at 1.5 mg/kg ([5]; 1.5 mg./kg.) of the same compound?
**A.** 29%

**Q.** What about the inhibition in vivo at 2.5 mg/kg ([5]; 2.5 mg./kg.) of the same compound?
**A.** 35%

**Q.** And the inhibition in vivo at 5 mg/kg ([5]; 5 mg./kg.)?
**A.** 43%

**Q.** And the inhibition in vivo at 15 mg/kg ([5]; 15 mg./kg.)?
**A.** 56%

**Q.** What about the inhibition in vivo at 25 mg/kg ([5]; 25 mg./kg.) of the same compound?
**A.** 65%

**Q.** What about the inhibition in vivo at 50 mg/kg ([5]; 50 mg./kg.) of the same compound?
**A.** 57%

**Q.** What about the “Temperatures of rats receiving both yeast and test compound” value ([6]; 10, 50 and 100 mg./kg., all reading times) of the same compound?
**A.** uniformly lower

**Q.** And the “Temperature change in rats receiving no yeast injection” value ([6]; no yeast, 100 mg./kg.)?
**A.** some lowering of temperature occurred

**Q.** And the “Statistical significance of temperature change in rats receiving no yeast” value ([6]; no yeast, 100 mg./kg., versus normal control and yeast control groups)?
**A.** not statistically significant

**Q.** What about the Antipyretic action ([6]; rats, yeast fever, conclusion) of the same compound?
**A.** exhibited antipyretic action

**Q.** What about the “Statistical significance of temperature differences, 1.5 hour reading” value ([6]; yeast rats, 50 mg./kg. and 100 mg./kg., 1.5 hour) of the same compound?
**A.** not statistically significant

**Q.** And the “Statistical significance of temperature differences, 1.0 hour reading” value ([6]; yeast rats, all dose levels, 1.0 hour)?
**A.** not statistically significant

**Q.** What about the “Statistical significance of temperature differences, all other doses” value ([6]; yeast rats, all other doses/readings) of the same compound?
**A.** statistically significant
